Reference: ChEMBL document CHEMBL1909046, “DrugMatrix in vitro pharmacology data”

What was measured:
Progesterone receptor = biological target: T1, Progesterone receptor (Bos taurus, UniProt Q690N0); assay: DRUGMATRIX: Progesterone radioligand binding (ligand: [3H] R-5020); assay type: tissue-based, Uterus; details: Not Active = under 50% inhibition at 10 µM
T1 sequence (Q690N0 whole entry): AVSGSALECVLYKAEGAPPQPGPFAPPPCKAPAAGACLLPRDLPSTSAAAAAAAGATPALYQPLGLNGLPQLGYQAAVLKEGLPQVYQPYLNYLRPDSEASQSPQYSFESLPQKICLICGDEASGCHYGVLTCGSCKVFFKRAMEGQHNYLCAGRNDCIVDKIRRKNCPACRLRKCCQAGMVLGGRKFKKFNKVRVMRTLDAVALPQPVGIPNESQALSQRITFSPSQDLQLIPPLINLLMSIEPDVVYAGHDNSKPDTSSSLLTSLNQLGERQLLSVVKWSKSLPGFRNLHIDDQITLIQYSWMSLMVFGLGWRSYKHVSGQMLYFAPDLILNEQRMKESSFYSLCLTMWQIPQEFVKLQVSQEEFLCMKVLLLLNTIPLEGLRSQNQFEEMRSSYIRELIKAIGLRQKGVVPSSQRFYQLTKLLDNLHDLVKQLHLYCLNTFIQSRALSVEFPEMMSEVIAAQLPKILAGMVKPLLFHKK

[1] = DRUGMATRIX: Calcium Channel Type L, Dihydropyridine radioligand binding (ligand: [3H] Nitrendipine); assay type: cell membranes, Rattus norvegicus, Wistar, Cerebral cortex, Membrane; details: Not Active = under 50% inhibition at 10 µM
Adenosine receptor A1 = biological target: T2, Adenosine receptor A1 (Homo sapiens, UniProt P30542); assay type: cell membranes, CHO, Membrane; details: cho;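 further: radioligand binding assay at the adenosine A1 receptor, with DPCPX serving as the labelled ligand; in other assays of this panel Not Active means under 50% inhibition at 10 µM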
T2 sequence (P30542 whole entry): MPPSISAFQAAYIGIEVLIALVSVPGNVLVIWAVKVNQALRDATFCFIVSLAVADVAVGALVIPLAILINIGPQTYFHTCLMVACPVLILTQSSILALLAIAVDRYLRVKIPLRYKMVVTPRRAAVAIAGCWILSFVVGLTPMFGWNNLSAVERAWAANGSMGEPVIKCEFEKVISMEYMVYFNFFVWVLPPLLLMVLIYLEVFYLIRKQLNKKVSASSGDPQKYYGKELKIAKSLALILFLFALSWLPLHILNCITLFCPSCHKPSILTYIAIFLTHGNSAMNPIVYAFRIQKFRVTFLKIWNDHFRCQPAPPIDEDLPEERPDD

Glucocorticoid receptor = biological target: T3, Glucocorticoid receptor (Homo sapiens, UniProt P04150); details: hela s3; further: in other assays of this panel Not Active means under 50% inhibition at 10 µM
T3 sequence (P04150 whole entry): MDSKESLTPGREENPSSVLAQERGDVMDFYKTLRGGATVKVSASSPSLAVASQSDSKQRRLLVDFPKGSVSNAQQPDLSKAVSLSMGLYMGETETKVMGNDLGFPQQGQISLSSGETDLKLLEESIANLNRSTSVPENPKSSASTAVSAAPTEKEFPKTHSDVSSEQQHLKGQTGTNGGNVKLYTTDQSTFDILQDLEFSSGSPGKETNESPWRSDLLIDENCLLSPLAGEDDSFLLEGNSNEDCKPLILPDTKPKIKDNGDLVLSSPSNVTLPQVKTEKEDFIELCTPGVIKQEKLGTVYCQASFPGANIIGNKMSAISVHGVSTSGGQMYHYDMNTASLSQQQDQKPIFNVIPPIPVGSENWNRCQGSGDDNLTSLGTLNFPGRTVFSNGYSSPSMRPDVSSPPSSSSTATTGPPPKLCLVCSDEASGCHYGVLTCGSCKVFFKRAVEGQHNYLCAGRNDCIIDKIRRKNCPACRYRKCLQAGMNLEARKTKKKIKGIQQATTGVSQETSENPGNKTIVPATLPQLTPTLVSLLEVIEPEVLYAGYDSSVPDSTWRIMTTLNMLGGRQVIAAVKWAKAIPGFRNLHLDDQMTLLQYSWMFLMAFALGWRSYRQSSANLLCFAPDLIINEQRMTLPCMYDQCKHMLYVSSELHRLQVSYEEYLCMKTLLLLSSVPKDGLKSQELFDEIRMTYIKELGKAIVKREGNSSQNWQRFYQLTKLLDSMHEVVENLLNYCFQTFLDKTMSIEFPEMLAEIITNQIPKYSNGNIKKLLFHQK

[2] = DRUGMATRIX: Phosphodiesterase PDE3 enzyme inhibition (substrate: [3H]cAMP + cAMP); assay type: tissue-based, Homo sapiens; details: platelet; Not Active = under 50% inhibition at 10 µM
[3] = biological target: T4, C-X-C chemokine receptor type 1 (Homo sapiens, UniProt P25024); further: in other assays of this panel Not Active means under 50% inhibition at 10 µM
T4 sequence (P25024 whole entry): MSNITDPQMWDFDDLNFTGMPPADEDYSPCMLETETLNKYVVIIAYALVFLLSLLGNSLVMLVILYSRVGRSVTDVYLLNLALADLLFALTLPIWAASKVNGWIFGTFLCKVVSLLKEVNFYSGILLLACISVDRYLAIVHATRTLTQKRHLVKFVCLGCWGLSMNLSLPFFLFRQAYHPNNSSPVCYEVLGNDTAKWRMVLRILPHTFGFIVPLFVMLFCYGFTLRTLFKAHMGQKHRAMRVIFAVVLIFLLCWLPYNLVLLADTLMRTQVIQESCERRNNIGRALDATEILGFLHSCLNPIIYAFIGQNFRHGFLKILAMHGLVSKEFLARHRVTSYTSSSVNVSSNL

Structure (SMILES)	IC50 (Progesterone receptor)	IC50 [1]	Ki [1]	IC50 (Adenosine receptor A1)	IC50 (Glucocorticoid receptor)	IC50 [2]	Ki [2]	IC50 [3]	IC50 (Progesterone receptor; read-out: IC50) [µM]	Ki (Progesterone receptor; read-out: Ki) [µM]
CCO [ALCOHOL]	Not Active	Not Active	Not Active	Not Active	Not Active	Not Active	Not Active	Not Active	–	–
COc1cc(/C=C/C(=O)O)ccc1O [FERULATE]	Not Active	Not Active	Not Active	Not Active	Not Active	Not Active	Not Active	Not Active	–	–
CC1(COc2ccc(CC3SC(=O)NC3=O)cc2)CCCCC1 (configuration not stated) [CIGLITAZONE]	–	Not Active	Not Active	Not Active	Not Active	Not Active	Not Active	Not Active	29.1	3.8
NC(N)=Nc1nc(CSCCC(N)=NS(N)(=O)=O)cs1 [FAMOTIDINE]	Not Active	Not Active	Not Active	Not Active	Not Active	Not Active	Not Active	Not Active	–	–
Nc1nc(F)nc2c1ncn2[C@@H]1O[C@H](CO)[C@@H](O)[C@@H]1O [FLUDARABINE]	Not Active	Not Active	Not Active	Not Active	Not Active	Not Active	Not Active	Not Active	–	–
NC(=O)NC(=O)Cc1ccccc1 [PHENACEMIDE]	Not Active	Not Active	Not Active	Not Active	Not Active	Not Active	Not Active	Not Active	–	–
Nc1ccc(C(=O)O)c(O)c1 [AMINOSALICYLIC ACID]	Not Active	Not Active	Not Active	Not Active	Not Active	Not Active	Not Active	Not Active	–	–
O=c1[nH]cnc2c1ncn2[C@H]1CC[C@@H](CO)O1 [DIDANOSINE]	Not Active	Not Active	Not Active	Not Active	Not Active	Not Active	Not Active	Not Active	–	–
NC(=O)CN1CCCC1=O	Not Active	Not Active	Not Active	Not Active	Not Active	Not Active	Not Active	Not Active	–	–
Clc1cc(Cl)c(OCC#CI)cc1Cl [HALOPROGIN]	Not Active	Not Active	Not Active	Not Active	Not Active	Not Active	Not Active	Not Active	–	–
Cc1c(N)nc([C@H](CC(N)=O)NC[C@H](N)C(N)=O)nc1C(=O)N[C@H](C(=O)N[C@H](C)[C@@H](O)[C@H](C)C(=O)N[C@H](C(=O)NCCc1nc(-c2nc(C(=O)NCCC[S+](C)C)cs2)cs1)[C@@H](C)O)[C@@H](O[C@@H]1O[C@@H](CO)[C@@H](O)[C@H](O)[C@@H]1O[C@H]1O[C@H](CO)[C@@H](O)[C@H](OC(N)=O)[C@@H]1O)c1c[nH]cn1.[Br-] [BLEOMYCIN A2]	Not Active	Not Active	Not Active	Not Active	Not Active	Not Active	Not Active	Not Active	–	–
CC(C)Cc1ccc([C@H](C)C(=O)O)cc1 [DEXIBUPROFEN]	Not Active	Not Active	Not Active	Not Active	Not Active	Not Active	Not Active	Not Active	–	–
COc1ccc(C[C@H](N)C(=O)N[C@H]2[C@@H](O)[C@H](n3cnc4c(N(C)C)ncnc43)O[C@@H]2CO)cc1 [PUROMYCIN]	Not Active	Not Active	Not Active	Not Active	Not Active	Not Active	Not Active	Not Active	–	–
O=C1c2ccccc2C(=O)C1c1ccccc1 [PHENINDIONE]	Not Active	Not Active	Not Active	Not Active	Not Active	Not Active	Not Active	Not Active	–	–
OC[C@H]1OC2C3[C@@H](CO)OC(O[C@H]4[C@H](O)[C@@H](O)[C@@H](O[C@H]5[C@H](O)[C@@H](O)[C@@H](O[C@H]6[C@H](O)[C@@H](O)[C@@H](O[C@H]7[C@H](O)[C@@H](O)[C@@H](O[C@H]8[C@H](O)[C@@H](O)[C@@H](O[C@H]9[C@H](O)[C@@H](O)C(OC1[C@H](O)[C@H]2O)O[C@@H]9CO)O[C@@H]8CO)O[C@@H]7CO)O[C@@H]6CO)O[C@@H]5CO)O[C@@H]4CO)[C@H](O)[C@H]3O	Not Active	Not Active	Not Active	Not Active	Not Active	Not Active	Not Active	Not Active	–	–
CO[C@H]1O[C@@H]2O[C@@]3(C)CC[C@H]4[C@H](C)CC[C@@H]([C@H]1C)[C@@]24OO3	Not Active	Not Active	Not Active	Not Active	Not Active	Not Active	Not Active	Not Active	–	–
CC(C)Cn1cnc2c(N)nc3ccccc3c21 [IMIQUIMOD]	Not Active	Not Active	Not Active	Not Active	Not Active	Not Active	Not Active	Not Active	–	–
CC(C)(C#N)c1cc(Cn2cncn2)cc(C(C)(C)C#N)c1 [ANASTROZOLE]	Not Active	Not Active	Not Active	Not Active	Not Active	Not Active	Not Active	Not Active	–	–
Cc1cc(C(C)(C)C)c(O)c(C)c1CC1=NCCN1 [OXYMETAZOLINE]	Not Active	Not Active	Not Active	Not Active	Not Active	Not Active	Not Active	Not Active	–	–
O=C(Nc1ccc(Cl)c(Cl)c1)c1cc(Cl)cc(Cl)c1O [3,3',4',5-TETRACHLOROSALICYLANILIDE]	Not Active	Not Active	Not Active	Not Active	Not Active	Not Active	Not Active	Not Active	–	–
COC(=O)C[C@](O)(CCC(C)(C)O)C(=O)O[C@@H]1C(OC)=C[C@]23CCCN2CCc2cc4c(cc2[C@H]13)OCO4 [HARRINGTONINE]	Not Active	Not Active	Not Active	Not Active	Not Active	Not Active	Not Active	Not Active	–	–
C=CCO [ALLYL ALCOHOL]	Not Active	Not Active	Not Active	Not Active	Not Active	Not Active	Not Active	Not Active	–	–
